Experiments:
Androgen receptor [1] = molecular target: T1, Androgen receptor (Homo sapiens, UniProt P10275); assay: Displacement of [3H]DHT from AR in human MDA-MB-453 cells
T1 sequence (P10275 whole entry): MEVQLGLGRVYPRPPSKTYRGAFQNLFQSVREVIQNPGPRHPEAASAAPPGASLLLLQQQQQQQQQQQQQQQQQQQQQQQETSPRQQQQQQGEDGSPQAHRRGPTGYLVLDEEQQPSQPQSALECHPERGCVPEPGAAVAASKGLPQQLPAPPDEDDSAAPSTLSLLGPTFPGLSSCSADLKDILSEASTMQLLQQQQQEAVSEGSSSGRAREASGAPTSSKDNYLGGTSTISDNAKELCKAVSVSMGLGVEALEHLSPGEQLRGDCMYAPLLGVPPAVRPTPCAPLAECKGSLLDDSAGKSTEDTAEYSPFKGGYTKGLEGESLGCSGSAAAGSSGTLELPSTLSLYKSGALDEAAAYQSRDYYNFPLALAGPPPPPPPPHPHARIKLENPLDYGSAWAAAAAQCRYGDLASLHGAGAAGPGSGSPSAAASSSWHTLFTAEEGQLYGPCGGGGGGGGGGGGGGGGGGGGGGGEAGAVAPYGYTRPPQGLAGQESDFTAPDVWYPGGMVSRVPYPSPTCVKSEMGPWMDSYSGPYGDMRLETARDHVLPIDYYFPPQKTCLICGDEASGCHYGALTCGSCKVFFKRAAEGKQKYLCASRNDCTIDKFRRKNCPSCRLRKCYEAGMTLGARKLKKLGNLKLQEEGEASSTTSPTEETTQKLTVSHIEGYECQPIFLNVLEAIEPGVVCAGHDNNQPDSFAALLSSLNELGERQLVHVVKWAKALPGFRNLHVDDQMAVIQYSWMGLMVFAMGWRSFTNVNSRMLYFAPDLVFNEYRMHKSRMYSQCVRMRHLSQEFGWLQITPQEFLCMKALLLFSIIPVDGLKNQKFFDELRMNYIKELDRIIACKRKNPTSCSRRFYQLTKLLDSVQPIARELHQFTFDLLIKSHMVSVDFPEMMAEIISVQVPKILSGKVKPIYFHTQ

MDA-MB-435 = assay: Cytotoxicity against human MDA-MB-435 cells assessed as inhibition of DHT-induced cell growth at 5 uM; assay type: functional
Androgen receptor [2] = molecular target: T1, Androgen receptor
Description: Antagonist activity at human wild type AR expressed in human MDA-MB-435 cells by transactivation assay

LNCaP = assay: Cytotoxicity against human LNCAP cells assessed as inhibition of DHT-induced cell growth at 5 uM; assay type: functional
Androgen receptor [3] = molecular target: T1, Androgen receptor; remark: listed apart in the source
Description: Antagonist activity at wild type human AR expressed in human LNCAP cells by transactivation assay

[4] = Metabolic stability in human liver microsomes assessed as compound remaining at 3 uM after 10 mins; assay type: ADME, Microsome; conditions: read-out: Activity
[5] = Metabolic stability in rat liver microsomes assessed as compound remaining at 3 uM after 10 mins; assay type: ADME, Microsome; conditions: read-out: Activity
[6] = Metabolic stability in mouse liver microsomes assessed as compound remaining at 3 uM after 10 mins; assay type: ADME, Microsome; conditions: read-out: Activity
Rattus norvegicus [7] = assay: Effect on immature rat prostate weight in rat assessed as ratio of weight of seminal vesicles to full body weight at 1 mg/kg, po qd for 3 days relative to control; assay type: functional, Prostate gland
Rattus norvegicus [8] = assay: Effect on immature rat prostate weight in rat assessed as ratio of weight of seminal vesicles to full body weight at 30 mg/kg, po qd for 3 days relative to control; assay type: functional, Prostate gland

| SMILES | Ki (Androgen receptor [1]) [nM] | inhibition at 5 µM (MDA-MB-435) [%] | IC50 (Androgen receptor [2]) [nM] | inhibition at 5 µM (LNCaP) [%] | IC50 (Androgen receptor [3]) [nM] | remaining at 10 min, 3 µM [4] [%] | remaining at 10 min, 3 µM [5] [%] | remaining at 10 min, 3 µM [6] [%] | Activity (Rattus norvegicus [7]) [%] | Activity (Rattus norvegicus [8]) [%] |
| --- | --- | --- | --- | --- | --- | --- | --- | --- | --- | --- |
| C[C@]12CN(S(=O)(=O)c3ccc(F)cc3)C[C@](C)(O1)[C@@H]1C(=O)N(c3ccc(C#N)c(C(F)(F)F)c3)C(=O)[C@@H]12 | 32 | 100 | 54 | 95 | 685 |  |  |  |  |  |
| C[C@]12CNC[C@](C)(O1)[C@@H]1C(=O)N(c3ccc(C#N)c(C(F)(F)F)c3)C(=O)[C@@H]12 | 21 | 98 | 128 | 20 | > 5000 |  |  |  |  |  |
| CCCN1C[C@@]2(C)O[C@@](C)(C1)[C@@H]1C(=O)N(c3ccc(C#N)c(C(F)(F)F)c3)C(=O)[C@@H]12 | 14 | 99 | 14 | 98 | 25 |  |  |  |  |  |
| CCC(=O)N1C[C@@]2(C)O[C@@](C)(C1)[C@@H]1C(=O)N(c3ccc(C#N)c(C(F)(F)F)c3)C(=O)[C@@H]12 | 84 | 95 | 129 | 91 | 549 |  |  |  |  |  |
| CC(C)C(=O)N1C[C@@]2(C)O[C@@](C)(C1)[C@@H]1C(=O)N(c3ccc(C#N)c(C(F)(F)F)c3)C(=O)[C@@H]12 | 39 | 98 | 215 | 72 | 1610 |  |  |  |  |  |
| C[C@]12CN(C(=O)C3CC3)C[C@](C)(O1)[C@@H]1C(=O)N(c3ccc(C#N)c(C(F)(F)F)c3)C(=O)[C@@H]12 | 36 | 99 |  | 95 | 404 |  |  |  |  |  |
| C[C@]12CN(C(=O)c3ccccc3)C[C@](C)(O1)[C@@H]1C(=O)N(c3ccc(C#N)c(C(F)(F)F)c3)C(=O)[C@@H]12 | 23 | 99 | 54 | 98 | 177 |  |  |  |  |  |
| CC(C)NC(=O)N1C[C@@]2(C)O[C@@](C)(C1)[C@@H]1C(=O)N(c3ccc(C#N)c(C(F)(F)F)c3)C(=O)[C@@H]12 | 98 | 88 | 876 | 52 | 4600 |  |  |  |  |  |
| C[C@]12CN(C(=O)Nc3ccccc3)C[C@](C)(O1)[C@@H]1C(=O)N(c3ccc(C#N)c(C(F)(F)F)c3)C(=O)[C@@H]12 | 40 | 99 | 16 | 98 | 123 |  |  |  |  |  |
| CCOC(=O)N1C[C@@]2(C)O[C@@](C)(C1)[C@@H]1C(=O)N(c3ccc(C#N)c(C(F)(F)F)c3)C(=O)[C@@H]12 | 5.7 | 99 | 65 | 93 | 590 |  |  |  |  |  |
| CCCOC(=O)N1C[C@@]2(C)O[C@@](C)(C1)[C@@H]1C(=O)N(c3ccc(C#N)c(C(F)(F)F)c3)C(=O)[C@@H]12 | 6.6 | 99 | 9.3 | 99 | 54 |  |  |  |  |  |
| C[C@]12CN(C(=O)Nc3ccc(F)cc3)C[C@](C)(O1)[C@@H]1C(=O)N(c3ccc(C#N)c(C(F)(F)F)c3)C(=O)[C@@H]12 | 29 | 99 | 39 | 98 | 104 |  |  |  |  |  |
| C[C@]12CN(S(C)(=O)=O)C[C@](C)(O1)[C@@H]1C(=O)N(c3ccc(C#N)c(C(F)(F)F)c3)C(=O)[C@@H]12 | 56 | 99 | 205 | 61 | 3510 |  |  |  |  |  |
| CCS(=O)(=O)N1C[C@@]2(C)O[C@@](C)(C1)[C@@H]1C(=O)N(c3ccc(C#N)c(C(F)(F)F)c3)C(=O)[C@@H]12 | 16 | 99 | 85 | 90 | 600 |  |  |  |  |  |
| C[C@]12CN(S(=O)(=O)c3ccccc3)C[C@](C)(O1)[C@@H]1C(=O)N(c3ccc(C#N)c(C(F)(F)F)c3)C(=O)[C@@H]12 | 12 | 99 | 99 | 91 | 979 |  |  |  |  |  |
| C[C@]12CN(S(=O)(=O)c3ccccn3)C[C@](C)(O1)[C@@H]1C(=O)N(c3ccc(C#N)c(C(F)(F)F)c3)C(=O)[C@@H]12 | 93 | 98 | 170 | 80 | 1240 |  |  |  |  |  |
| C[C@]12CN(c3cccc(S(N)(=O)=O)c3)C[C@](C)(O1)[C@@H]1C(=O)N(c3ccc(C#N)c(C(F)(F)F)c3)C(=O)[C@@H]12 | 22 | 99 | 37 | 94 | 337 |  |  |  |  |  |
| C[C@]12CN(c3cccc(S(C)(=O)=O)c3)C[C@](C)(O1)[C@@H]1C(=O)N(c3ccc(C#N)c(C(F)(F)F)c3)C(=O)[C@@H]12 | 9.4 | 96 | 7.4 | 98 | 150 | 76 | 100 | 92 | 37 | 28 |
| C[C@]12CN(c3cc(Cl)ncn3)C[C@](C)(O1)[C@@H]1C(=O)N(c3ccc(C#N)c(C(F)(F)F)c3)C(=O)[C@@H]12 | 3.5 | 98 | 11 | 100 |  |  |  |  |  |  |
| C[C@]12CN(c3ncccn3)C[C@](C)(O1)[C@@H]1C(=O)N(c3ccc(C#N)c(C(F)(F)F)c3)C(=O)[C@@H]12 | 6.1 | 99 | 31 | 97 | 377 |  |  |  |  |  |
| C[C@]12CN(c3cccc(C(N)=O)c3)C[C@](C)(O1)[C@@H]1C(=O)N(c3ccc(C#N)c(C(F)(F)F)c3)C(=O)[C@@H]12 | 9 | 98 |  | 99 | 127 |  |  |  |  |  |
| CN1C(=O)[C@]2(C)O[C@](C)(C1=O)[C@H]1C(=O)N(c3ccc(C#N)c(C(F)(F)F)c3)C(=O)[C@H]12 | 20 |  | 2140 |  | > 5000 |  |  |  |  |  |
| C[C@]12O[C@](C)(C(=O)N(CC3CC3)C1=O)[C@H]1C(=O)N(c3ccc(C#N)c(C(F)(F)F)c3)C(=O)[C@H]12 | 50 |  | 873 |  | 3330 |  |  |  |  |  |
| CC(C)OC(=O)N1C[C@@]2(C)O[C@@](C)(C1)[C@@H]1C(=O)N(c3ccc(C#N)c(C(F)(F)F)c3)C(=O)[C@@H]12 | 11 | 99 | 12 | 99 | 69 |  |  |  |  |  |
| CC(C)[N+]1([O-])C(=O)[C@]2(C)O[C@](C)(C1=O)[C@H]1C(=O)N(c3ccc(C#N)c(C(F)(F)F)c3)C(=O)[C@H]12 (some centres not stated) | 3600 | 58 | 3900 |  | 5000 |  |  |  |  |  |
| CCNC(=O)N1C[C@@]2(C)O[C@@](C)(C1)[C@@H]1C(=O)N(c3ccc(C#N)c(C(F)(F)F)c3)C(=O)[C@@H]12 | 176 | 97 | 313 | 76 | 1460 |  |  |  |  |  |
| CC(C)N1C(=O)[C@]2(C)O[C@](C)(C1=O)[C@H]1C(=O)N(c3ccc(C#N)c(C(F)(F)F)c3)C(=O)[C@H]12 | 14 | 99 | 32 | 99 | 125 |  |  |  |  |  |
| C[C@]12CN(O)C[C@](C)(O1)[C@@H]1C(=O)N(c3ccc(C#N)c(C(F)(F)F)c3)C(=O)[C@@H]12 | 37 | 97 | 182 | 79 | 1280 |  |  |  |  |  |
| CON1C[C@@]2(C)O[C@@](C)(C1)[C@@H]1C(=O)N(c3ccc(C#N)c(C(F)(F)F)c3)C(=O)[C@@H]12 | 3.7 | 99 | 24 | 72 | 179 |  |  |  |  |  |

— ChEMBL document CHEMBL1208719, “Design and synthesis of 4-[3,5-dioxo-11-oxa-4,9-diazatricyclo[5.3.1.0(2,6)]undec-4-yl]-2-trifluoromethyl-benzonitriles as androgen receptor antagonists” (Bioorg Med Chem Lett, 2010)
